From patent publication US10899710B2, “Pyridines and their use in the treatment of cancer” (The United States of America, as represented by the …, priority 2015, dated 2021)
pIC50: −log10 of the molar value. Structures can show the parent of a compound that is named as a salt. Where two headings read alike, the source gives them in different places.

Columns and labels:
HCT-15 = assay: Growth inhibition GI50, HCT-15; assay type: cell-based; settings: Homo sapiens, Colon Cancer
Procedure: (§1) Cell lines were plated 2000 cells/well in 96-well black optical plates in the presence of 10% FBS media containing 25 nM selenite. The following day cells were treated with various concentrations of the compound of Example 1 (0.1% DMSO final) and incubated for 72 hrs. After the incubation Cell-Quanti Blue reagent was added to each well and incubated for additional 3 hrs. Fluorescence was read ex:530 nm/em:590 nm, and percent of viability was determined using DMSO vehicle and no cell (blank) controls.
(§2) Further results obtained in similar experiments were as indicated below (GI50 refers to concentration of compound yielding 50% growth inhibition; E denotes an exponent to the base 10).

A549/ATCC = assay: Growth inhibition GI50, A549/ATCC; assay type: cell-based; settings: Homo sapiens, Non-Small Cell Lung Cancer
Procedure: as §1, §2

CAKI-1 = assay: Growth inhibition GI50, CAKI-1; assay type: cell-based; settings: Homo sapiens, Renal Cancer
Procedure: as §1, §2

[1] = target: T1, gluthathione reductase (GR) (Homo sapiens, UniProt P00390); assay: Inhibition of recombinant GR (GSSG assay); assay type: biochemical
T1 sequence (P00390 44-522): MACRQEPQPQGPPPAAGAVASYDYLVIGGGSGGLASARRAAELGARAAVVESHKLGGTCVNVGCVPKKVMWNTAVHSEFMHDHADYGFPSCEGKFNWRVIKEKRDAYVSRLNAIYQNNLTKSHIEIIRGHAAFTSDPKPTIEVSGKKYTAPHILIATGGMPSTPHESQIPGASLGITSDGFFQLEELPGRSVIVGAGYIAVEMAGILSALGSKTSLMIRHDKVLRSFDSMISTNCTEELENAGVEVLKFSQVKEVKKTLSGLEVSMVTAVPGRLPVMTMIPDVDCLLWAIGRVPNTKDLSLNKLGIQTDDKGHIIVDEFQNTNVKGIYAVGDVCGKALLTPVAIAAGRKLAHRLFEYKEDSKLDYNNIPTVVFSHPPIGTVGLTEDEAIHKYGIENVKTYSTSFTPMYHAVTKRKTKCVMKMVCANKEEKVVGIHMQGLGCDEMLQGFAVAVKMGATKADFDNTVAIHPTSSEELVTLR
Procedure: (§3) Small molecule inhibition of recombinant thioredoxin reductase 1 (TrxR1) and gluthathione reductase (GR) was examined in 96-well plate format. 15 nM TrxR1 was incubated in the presence of 250 μM NADPH, 0.1 mg/ml BSA, and various concentrations of the compound of Example 1 (1% DMSO final) in 50 mM Tris (pH 7.5) and 2 mM EDTA buffer for 15 minutes. Following the incubation period, 2.5 mM DTNB was added to each well and the change in O.D. at 412 nm was followed. Percent activity was determined using DMSO vehicle and no TrxR1 (blank) controls. 2 nM GR was incubated in the presence of 250 μM NADPH, 0.1 mg/ml BSA, and various concentrations of compounds (1% DMSO final) in 50 mM Tris (pH 7.5) and 2 mM EDTA buffer for 15 minutes. Following the incubation period, 1 mM GSSG was added to each well and the change in O.D. at 340 nm was followed. Percent activity was determined using DMSO vehicle and no GR (blank) controls.

IGROV1 = assay: Growth inhibition GI50, IGROV1; assay type: cell-based; settings: Homo sapiens, IGROV-1, Ovarian Cancer
Procedure: as §1, §2

PC-3 = assay: Growth inhibition GI50, PC-3; assay type: cell-based; settings: Homo sapiens, Prostate Cancer
Procedure: as §1, §2

SK-OV-3 = assay: Growth inhibition GI50, SK-OV-3; assay type: cell-based; settings: Homo sapiens, Ovarian Cancer
Procedure: as §1, §2

UO-31 = assay: Growth inhibition GI50, UO-31; assay type: cell-based; settings: Homo sapiens, Renal Cancer
Procedure: as §1, §2

UACC-257 = assay: Growth inhibition GI50, UACC-257; assay type: cell-based; settings: Homo sapiens, Melanoma
Procedure: as §1, §2

SN12C = assay: Growth inhibition GI50, SN12C; assay type: cell-based; settings: Homo sapiens, Renal Cancer
Procedure: as §1, §2

SK-MEL-28 = assay: Growth inhibition GI50, SK-MEL-28; assay type: cell-based; settings: Homo sapiens, Melanoma
Procedure: as §1, §2

HCT-116 = assay: Growth inhibition GI50, HCT-116; assay type: cell-based; settings: Homo sapiens, Colon Cancer
Procedure: as §1, §2

SF-268 = assay: Growth inhibition GI50, SF-268; assay type: cell-based; settings: Homo sapiens, CNS Cancer
Procedure: as §1, §2

MDA-MB-435 = assay: Growth inhibition GI50, MDA-MB-435; assay type: cell-based; settings: Homo sapiens, Melanoma
Procedure: as §1, §2

[2] = target: T2, recombinant thioredoxin reductase 1 (TrxR1) (Homo sapiens, UniProt Q16881); assay: Inhibition of recombinant TrxR1 (DTNB assay); assay type: biochemical; settings: read-out: TrxR inhibition (IC50)
T2 sequence (Q16881 151-649 limits assumed): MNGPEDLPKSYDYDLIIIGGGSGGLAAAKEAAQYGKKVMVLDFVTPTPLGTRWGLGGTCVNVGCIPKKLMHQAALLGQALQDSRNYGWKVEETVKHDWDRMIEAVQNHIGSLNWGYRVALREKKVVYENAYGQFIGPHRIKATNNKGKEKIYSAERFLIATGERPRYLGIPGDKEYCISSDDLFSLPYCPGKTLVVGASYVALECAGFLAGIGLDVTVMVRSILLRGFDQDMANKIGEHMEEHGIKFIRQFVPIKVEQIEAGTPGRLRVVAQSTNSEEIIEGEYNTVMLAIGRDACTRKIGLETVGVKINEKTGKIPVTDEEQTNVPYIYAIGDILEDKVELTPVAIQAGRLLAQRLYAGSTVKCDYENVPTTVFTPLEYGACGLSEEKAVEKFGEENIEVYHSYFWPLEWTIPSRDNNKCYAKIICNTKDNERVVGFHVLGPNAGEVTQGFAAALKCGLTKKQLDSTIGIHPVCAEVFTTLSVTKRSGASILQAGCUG
Procedure: as §3

M14 = assay: Growth inhibition GI50, M14; assay type: cell-based; settings: Homo sapiens, Melanoma
Procedure: as §1, §2

786-0 = assay: Growth inhibition GI50, 786-0; assay type: cell-based; settings: Homo sapiens, Renal Cancer
Procedure: as §1, §2

HOP-62 = assay: Growth inhibition GI50, HOP-62; assay type: cell-based; settings: Homo sapiens, Non-Small Cell Lung Cancer
Procedure: as §1, §2

SNB-75 = assay: Growth inhibition GI50, SNB-75; assay type: cell-based; settings: Homo sapiens, CNS Cancer
Procedure: as §1, §2

HOP-92 = assay: Growth inhibition GI50, HOP-92; assay type: cell-based; settings: Homo sapiens, Non-Small Cell Lung Cancer
Procedure: as §1, §2

NCI-H522 = assay: Growth inhibition GI50, NCI-H522; assay type: cell-based; settings: Homo sapiens, Non-Small Cell Lung Cancer
Procedure: as §1, §2

[3] = mouse, in vivo, iv, 10 mg/kg
Procedure: Fox Chase male severe combined immunodeficiency (SCID, Charles River, #250) mice were inoculated with 1×10^6 FaDu cells in PBS at a pre-shaved region located at the anterior lateral thoracic wall. After 13 days of growth, tumors were caliper measured and treatments were initiated. […] Mouse health status was monitored daily, weight was measured, and tumor volume was recorded from caliper measurements.

SK-MEL-5 = assay: Growth inhibition GI50, SK-MEL-5; assay type: cell-based; settings: Homo sapiens, Melanoma
Procedure: as §1, §2

Question: With `COc1ccc([N+](=O)[O-])c(S(=O)(=O)c2ccc(Cl)cc2)n1` [Example 1, 2-((4-Chlorophenyl)sulphonyl)-6-methoxy-3-nitropyridine Hydrochloride] as the molecule, how does the GI50 (HCT-15) read?
Answer: Its GI50 is 2.05 µM.

Question: And the GI50 (A549/ATCC)?
Answer: The GI50 was 18.5 µM.

Question: And the GI50 (CAKI-1)?
Answer: Its GI50 is 1.61 µM.

Question: What about the pIC50 ([1]; Biological Example 1, 2 nM GR, 15 minutes incubation) of the same molecule?
Answer: Its pIC50 is less than 4.00.

Question: What about the pIC50 ([1]; Biological Example 4) of the same molecule?
Answer: The pIC50 was less than 4.00.

Question: What about the GI50 (IGROV1) of the same molecule?
Answer: The GI50 was 12.2 µM.

Question: What about the GI50 (PC-3) of the same molecule?
Answer: Its GI50 is 17.3 µM.

Question: What about the GI50 (SK-OV-3) of the same molecule?
Answer: Its GI50 is 15.1 µM.

Question: And the GI50 (UO-31)?
Answer: Its GI50 is 2.97 µM.

Question: What about the GI50 (UACC-257) of the same molecule?
Answer: Its GI50 is 11.3 µM.

Question: What about the GI50 (SN12C) of the same molecule?
Answer: Its GI50 is 3.82 µM.

Question: What about the GI50 (SK-MEL-28) of the same molecule?
Answer: Its GI50 is 3.57 µM.

Question: What about the GI50 (HCT-116) of the same molecule?
Answer: Its GI50 is 2.9 µM.

Question: What about the GI50 (SF-268) of the same molecule?
Answer: The GI50 was 4.57 µM.

Question: What about the GI50 (MDA-MB-435) of the same molecule?
Answer: Its GI50 is 1.75 µM.

Question: What about the pIC50 ([2]; Biological Example 1, 15 nM TrxR1, 15 minutes incubation) of the same molecule?
Answer: The pIC50 was 7.92.

Question: And the pIC50 ([2]; Biological Example 4)?
Answer: Its pIC50 is 7.68.

Question: And the GI50 (M14)?
Answer: The GI50 was 3.05 µM.

Question: And the GI50 (786-0)?
Answer: The GI50 was 2.51 µM.

Question: And the GI50 (HOP-62)?
Answer: The GI50 was 16.6 µM.

Question: And the GI50 (SNB-75)?
Answer: The GI50 was 11 µM.

Question: And the GI50 (HOP-92)?
Answer: The GI50 was 2 µM.

Question: What about the GI50 (NCI-H522) of the same molecule?
Answer: Its GI50 is 1.86 µM.

Question: What about the “Signs of general or systemic toxic effects” value [3] of the same molecule?
Answer: Its value is “no overt signs of general or systemic toxic effects”.

Question: What about the GI50 (SK-MEL-5) of the same molecule?
Answer: The GI50 was 12 µM.
